In ChEMBL document CHEMBL1255199, “Endochin optimization: structure-activity and structure-property relationship studies of 3-substituted 2-methyl-4(1H)-quinolones with antimalarial activity” (J Med Chem, 2010):
pEC50: −log10 of the molar value. ≈ marks a conversion by molar mass, not a printed value.

What was measured:
Plasmodium falciparum [1] = assay: Antimalarial activity against chloroquine, mefloquine, pyrimethamine and atovaquone-resistant Plasmodium falciparum TM90-C2B infected in human A+ erythrocytes after 72 hrs by SYBR Green I assay; type: functional, organism-based
Plasmodium falciparum [2] = assay: Antimalarial activity against chloroquine and pyrimethamine-resistant Plasmodium falciparum W2 infected in human A+ erythrocytes after 72 hrs by SYBR Green I assay; type: functional, organism-based; conditions: W2, 72 h
J774 = assay: Cytotoxicity against mouse J774 cells; type: cell-based
[3] = Lipophilicity, log D of the compound at pH 7.4; conditions: buffer
[4] = Passive transcellular permeability of the compound at pH 7.4 by PAMPA; type: ADME; conditions: for Papp: read-out: permeability
[5] = Passive transcellular permeability of the compound at pH 4 by PAMPA; type: ADME; conditions: for Papp: read-out: permeability
in vitro = conditions: mouse, J774 cells
Description: Cytotoxicity index, ratio of EC50 for mice (Mus musculus) J774 cells to EC50 for chloroquine, mefloquine, pyrimethamine and atovaquone-resistant Plasmodium falciparum TM90-C2B

physchem = conditions: aqueous, pH 7.4
Description: Aqueous solubility of the compound at pH 7.4 by HPLC analysis

| Compound | pEC50 (Plasmodium falciparum [1]) | pEC50 (Plasmodium falciparum [2]) | pEC50 (J774) | logD [3] | Papp [4] | Papp [5] | selectivity ratio (in vitro) | solubility (physchem) | permeability [4] | permeability [5] |
| --- | --- | --- | --- | --- | --- | --- | --- | --- | --- | --- |
| Cc1c(-c2ccccc2)c(=O)c2cc(Cl)ccc2n1C | < 5.06 | < 5.06 | – | – | – | – | – | – | – | – |
| COc1c(-c2ccccc2)c(C)nc2ccc(Cl)cc12 | < 5.06 | < 5.06 | – | – | – | – | – | – | – | – |
| COc1cc2[nH]c(C)c(CC(C)C)c(=O)c2cc1Cl | 7.20 | 7.06 | < 4.45 | 2.99 | 368 ×10⁻⁶ cm/s | 496 ×10⁻⁶ cm/s | – | – | – | – |
| Cc1nc2ccccc2c(OCc2ccccc2)c1Br | – | – | – | 2.52 | 794 ×10⁻⁶ cm/s | 99.7 ×10⁻⁶ cm/s | – | – | – | – |
| COc1cc2[nH]c(C)c(Br)c(=O)c2cc1Cl | – | – | – | 0 | 152 ×10⁻⁶ cm/s | 125 ×10⁻⁶ cm/s | – | – | – | – |
| COc1ccc2c(=O)cc(C)[nH]c2c1 | 4.90 | < 4.88 | < 4.28 | 1.2 | 8.91 ×10⁻⁶ cm/s | – | > 4.2 | – | – | – |
| Cc1cc(=O)c2ccccc2[nH]1 | < 4.20 | < 4.35 | < 4.20 | – | 1.54 ×10⁻⁶ cm/s | 1.56 ×10⁻⁶ cm/s | – | – | – | – |
| Cc1[nH]c2ccccc2c(=O)c1C1CCCCC1 | 5.65 | 6.23 | < 4.38 | 2.45 | 230 ×10⁻⁶ cm/s | 260 ×10⁻⁶ cm/s | > 18.6 | 10 µM (≈ 2.41 µg/mL) | – | – |
| Cc1[nH]c2ccccc2c(=O)c1-c1ccccc1 | 6.27 | 6.15 | < 4.37 | 2.02 | 33 ×10⁻⁶ cm/s | 16.6 ×10⁻⁶ cm/s | > 79.1 | > 20 µM | – | – |
| Cc1[nH]c2ccccc2c(=O)c1Cc1ccccc1 | 5.21 | < 5.30 | < 4.40 | 1.93 | 102 ×10⁻⁶ cm/s | 110 ×10⁻⁶ cm/s | > 6.5 | 10 µM (≈ 2.49 µg/mL) | – | – |
| Cc1[nH]c2ccccc2c(=O)c1/C=C/c1ccccc1 | < 5.04 | < 5.04 | < 4.44 | 4.4 | 224 ×10⁻⁶ cm/s | 222 ×10⁻⁶ cm/s | > 4 | – | – | – |
| COc1ccc2[nH]c(C)c(Br)c(=O)c2c1 | 5.93 | 5.52 | < 4.43 | 1.62 | 16.7 ×10⁻⁶ cm/s | – | > 32 | > 20 µM | – | – |
| Cc1[nH]c2ccc(Br)cc2c(=O)c1Br | 6.47 | 5.85 | < 4.50 | 1.76 | 95.2 ×10⁻⁶ cm/s | 133 ×10⁻⁶ cm/s | > 92.9 | > 20 µM | – | – |
| Cc1[nH]c2ccc(Cl)cc2c(=O)c1Br | 6.90 | 6.07 | 4.66 | 2.02 | 87.7 ×10⁻⁶ cm/s | 84.5 ×10⁻⁶ cm/s | 172 | 5 µM (≈ 1.36 µg/mL) | – | – |
| Cc1[nH]c2ccc(F)cc2c(=O)c1Br | 6.90 | 6.03 | < 4.41 | 1.61 | 18.3 ×10⁻⁶ cm/s | 16.2 ×10⁻⁶ cm/s | > 313 | – | – | – |
| CCCCC#Cc1c(C)[nH]c2ccc(OC)cc2c1=O | < 5.04 | < 5.04 | < 4.43 | 5.25 | – | – | > 4 | – | 2438.2 ×10⁻⁶ cm/s | 1020.6 ×10⁻⁶ cm/s |
| CCCCC#Cc1c(C)[nH]c2ccccc2c1=O | < 4.98 | 5.08 | 5.05 | 5.44 | – | 500 ×10⁻⁶ cm/s | – | – | 2137.05 ×10⁻⁶ cm/s | – |
| CCCCC#Cc1c(C)[nH]c2ccc(Cl)cc2c1=O | 4.37 | < 5.04 | < 4.44 | 2.98 | – | 171 ×10⁻⁶ cm/s | > 0.84 | 2 µM (≈ 0.548 µg/mL) | – | – |
| CCCCC#Cc1c(C)[nH]c2ccc(F)cc2c1=O | < 5.02 | < 5.02 | < 4.41 | 5.64 | 495 ×10⁻⁶ cm/s | 314 ×10⁻⁶ cm/s | > 4 | 2 µM (≈ 0.515 µg/mL) | – | – |
| COc1ccc2[nH]c(C)c(-c3ccccc3)c(=O)c2c1 | < 5.03 | < 5.03 | < 4.42 | 1.61 | 126 ×10⁻⁶ cm/s | – | > 4 | – | – | – |
| COc1ccc2c(=O)c(-c3ccccc3)c(C)[nH]c2c1 | 6.57 | 6.54 | < 4.42 | 1.56 | 9.89 ×10⁻⁶ cm/s | – | > 140 | – | – | – |
| COc1cccc2c(=O)c(-c3ccccc3)c(C)[nH]c12 | 5.78 | 5.69 | < 4.42 | 1.73 | 37 ×10⁻⁶ cm/s | 33.9 ×10⁻⁶ cm/s | > 22.6 | – | – | – |
| Cc1[nH]c2cc(Cl)ccc2c(=O)c1-c1ccccc1 | 5.73 | 6.67 | < 4.43 | 2.18 | – | 37.8 ×10⁻⁶ cm/s | > 19.9 | < 2 µM | – | – |
| Cc1[nH]c2cc(Cl)c(Cl)cc2c(=O)c1-c1ccccc1 | 6.46 | 6.24 | < 4.48 | 3.05 | – | – | > 93.3 | < 2 µM | – | – |

| Compound | pEC50 (Plasmodium falciparum [1]) | pEC50 (Plasmodium falciparum [2]) | pEC50 (J774) | logD [3] | Papp [4] | Papp [5] | selectivity ratio (in vitro) | solubility (physchem) | permeability [4] | permeability [5] |
| --- | --- | --- | --- | --- | --- | --- | --- | --- | --- | --- |
| Cc1[nH]c2c(Cl)c(Cl)ccc2c(=O)c1-c1ccccc1 | < 5.09 | < 5.09 | < 4.48 | 3.27 | 197 ×10⁻⁶ cm/s | 189 ×10⁻⁶ cm/s | – | – | – | – |
| CCCCCCC/C=C/c1c(C)[nH]c2ccccc2c1=O | – | 7.89 | – | 4.26 | – | 174 ×10⁻⁶ cm/s | – | < 2 µM | – | – |
| C=C(CCCCCCC)c1c(C)[nH]c2ccccc2c1=O | – | 7.40 | – | 2.35 | – | – | – | < 2 µM | – | 1755.67 ×10⁻⁶ cm/s |
| CCCCCC/C=C\Cc1c(C)[nH]c2ccccc2c1=O | – | 6.99 | – | 5.94 | – | – | – | < 2 µM | – | – |
| Cc1[nH]c2ccccc2c(=O)c1/C=C/C(=O)OC(C)(C)C | < 5.08 | < 5.08 | < 4.40 | 2.34 | 124 ×10⁻⁶ cm/s | 105 ×10⁻⁶ cm/s | > 4.8 | > 20 µM | – | – |
| Cc1[nH]c2ccccc2c(=O)c1/C=C/c1cccc([N+](=O)[O-])c1 | 5.83 | 5.34 | < 4.49 | 2.95 | 602 ×10⁻⁶ cm/s | 508 ×10⁻⁶ cm/s | > 21.9 | < 2 µM | – | – |
| Cc1[nH]c2ccccc2c(=O)c1/C=C/c1ccc(O)cc1 | < 5.05 | < 5.05 | < 4.44 | 1.77 | 17 ×10⁻⁶ cm/s | 10.7 ×10⁻⁶ cm/s | > 4 | > 20 µM | – | – |
| COc1ccc2c(c1)c(=O)c(Cc1ccccc1)c(C)n2C | 5.09 | < 5.07 | – | 2.73 | 268 ×10⁻⁶ cm/s | 295 ×10⁻⁶ cm/s | – | 10 µM (≈ 2.93 µg/mL) | – | – |
| Cc1c(Cc2ccccc2)c(=O)c2cc(Cl)ccc2n1C | < 5.08 | < 5.08 | – | 3.21 | 489 ×10⁻⁶ cm/s | 510 ×10⁻⁶ cm/s | – | 2 µM (≈ 0.596 µg/mL) | – | – |
| COc1ccc2c(=O)c(Cc3ccccc3)c(C)n(C)c2c1 | 5.11 | < 5.07 | – | 3.24 | 299 ×10⁻⁶ cm/s | 432 ×10⁻⁶ cm/s | – | > 20 µM | – | – |
| COc1ccc2nc(C)c(Cc3ccccc3)c(OC)c2c1 | < 5.07 | < 5.07 | – | 4.2 | – | 294 ×10⁻⁶ cm/s | – | 2 µM (≈ 0.587 µg/mL) | 1067.76 ×10⁻⁶ cm/s | – |
| COc1c(Cc2ccccc2)c(C)nc2ccc(Cl)cc12 | < 5.08 | < 5.08 | – | 4.93 | 268 ×10⁻⁶ cm/s | 360 ×10⁻⁶ cm/s | – | < 2 µM | – | – |
| COc1ccc2c(OC)c(Cc3ccccc3)c(C)nc2c1 | < 5.07 | < 5.07 | – | 4.35 | – | 325 ×10⁻⁶ cm/s | – | 2 µM (≈ 0.587 µg/mL) | 1277.24 ×10⁻⁶ cm/s | – |
| CCCCCCCCCc1c(C)[nH]c2cc(OC)c(Cl)cc2c1=O | 8.80 | 8.22 | < 4.54 | 4.74 | – | – | > 18000 | < 2 µM | – | – |
| COc1cc2[nH]c(C)c(Cc3ccccc3)c(=O)c2cc1Cl | 7.16 | 7.03 | < 4.50 | 1.99 | 566 ×10⁻⁶ cm/s | 575 ×10⁻⁶ cm/s | – | – | – | – |
| CCCCC#Cc1c(C)[nH]c2cc(OC)c(Cl)cc2c1=O | 5.38 | 5.67 | 4.82 | 2.45 | – | 148 ×10⁻⁶ cm/s | 3.6 | > 20 µM | – | – |
| CCCCC/C=C/c1c(C)[nH]c2cc(OC)c(Cl)cc2c1=O | 7.97 | 7.50 | < 4.51 | 3.57 | 46.3 ×10⁻⁶ cm/s | 280 ×10⁻⁶ cm/s | > 2950 | – | – | – |
| Cc1ccc2[nH]c(C)c(Br)c(=O)c2c1 | 6.58 | 6.54 | 4.71 | 1.07 | 42.2 ×10⁻⁶ cm/s | 26.4 ×10⁻⁶ cm/s | 74.9 | – | – | – |
| CCCCCCCc1c(C)nc2ccccc2c1O | 6.98 | 7.03 | 5.29 | 3.39 | – | – | 48.3 | – | – | – |
| CCCCCCCCCc1c(C)[nH]c2ccccc2c1=O | 7.40 | 7.62 | 5.55 | 4.33 | – | – | 69.9 | – | – | – |
| Cc1[nH]c2ccccc2c(=O)c1Br | 7.11 | 6.34 | < 4.38 | 1.67 | 13.6 ×10⁻⁶ cm/s | 8.19 ×10⁻⁶ cm/s | > 542 | > 20 µM | – | – |
| O=C1C(O)=C([C@H]2CC[C@H](c3ccc(Cl)cc3)CC2)C(=O)c2ccccc21 [ATOVAQUONE] | 5.21 | 9.27 | – | – | – | – | – | – | – | – |
| CCN(CC)CCCC(C)Nc1ccnc2cc(Cl)ccc12 (stereo not given) [CHLOROQUINE] | 7.32 | 6.79 | – | – | – | – | – | – | – | – |
